Results as given in patent publication US12589104B2, “Thiosaccharides for use in treating coronavirus infection” (priority 2020, dated 2026).
Structures can show the parent of a compound that is named as a salt.

Assays:
[1] = assay type: physicochemical; conditions: 11 mg/mL in vehicle, Aerogen Solo vibrating mesh nebulizer
[2] = system: VSV pseudotype bearing the SARS-2-S protein (VSV-S); assay type: cell-based, SARS-CoV-2
[3] = biological target: T1, RBD of SARS-2-S binding to ACE2 (Severe acute respiratory syndrome coronavirus 2, UniProt P0DTC2); design: species or system SARS-CoV-2
T1 construct: Recombinantly expressed RBD of SARS-2-S was first immobilized to a surface

[4] = system: SARS-2-S pseudovirus; assay type: cell-based, SARS-CoV-2
[5] = biological target: T2, SARS-CoV-2 RBD^original binding to ACE2 (Severe acute respiratory syndrome coronavirus 2, UniProt P0DTC2); conditions: for binding of RBD^original to ACE2 at one and two hours post exposure and wash: 5 mM drug for 1 hour, washed, ACE2 added after 60 or 120 minutes; for inhibition of binding of RBD^original to ACE2: RBD exposed to drug for 60 minutes, 0 to 20 mM
T2 construct: ACRO Biosystems); purchased ACRO Biosystems

[6] = system: SARS CoV2 (isolate USA-WA1/2020); design: species or system Syrian hamsters (Mesocricetus auratus); conditions: hamster, in vivo
[7] = system: SARS-CoV-2, isolate USA-WA1/2020; assay type: cell-based
[8] = cited from earlier work

OC1C(O)[C@H](O)C(CS)O[C@@H]1O[C@@H]1OC(CS)[C@@H](O)C(O)C1O (stereo partly drawn) [MUC-031, 6,6′-dithiotrehalose]
average mass median aerodynamic diameter (MMAD) of the exposure atmosphere [1]: 2.60 μm

OC1C(O)[C@H](O)C(CS)O[C@@H]1O[C@H]1OC(CS)[C@@H](O)C(O)C1O (stereo partly drawn) [MUC, 6,6′-dithiotrehalose]
effectiveness for inhibiting viral entry compared to NAC [2]: more effective than NAC | inhibition of VSV-S cellular entry [2]: inhibited VSV-S cellular entry | inhibition of VSV-S entry [2]: All three concentrations of MUC resulted in potent inhibition of VSV-S entry | inhibition of binding of ACE2 to SARS-2-S [3]: inhibited binding of ACE2 to SARS-2-S | persistence of binding inhibition after drug is washed out [3]: binding inhibition persists following drug contact | potency in inhibiting ACE2 binding compared to NAC [3]: stronger potency

O=S(=O)(O)CCS [MESNA, 2-Mercaptoethane sulfonate, sodium salt]
antiviral efficacy in vitro compared to NAC [4]: superior antiviral efficacy in vitro | binding of RBD^original to ACE2 at one and two hours post exposure and wash [5]: binding inhibition was retained for two hours after drug removal | inhibition of binding of RBD^original to ACE2 [5]: strong inhibitory effects

NCCS [Cysteamine]
interleukin-6 levels in lung lavage [6]: lower than control | lung weights [6]: lower than in control groups | lymphocytes in BAL fluid [6]: decreases | neutrophils in BAL fluid [6]: decreases | total leukocyte counts in the bronchoalveolar lavage (BAL) fluid [6]: lower than control | cytopathic effects in virus-infected cells, virus exposed to drug prior to infection [7]: significantly inhibited | binding of RBD^original to ACE2 at one and two hours post exposure and wash [5]: binding inhibition was retained for two hours after drug removal | inhibition of binding of RBD^original to ACE2 [5]: strong inhibitory effects | pKa (thiol group) [8]: 8.2

CC(=O)N[C@@H](CS)C(=O)O [NAC, N-acetyl-L-cysteine]
inhibition of VSV-S cellular entry [2]: inhibited VSV-S cellular entry | inhibition of VSV-S entry [2]: only 5 and 25 mM of NAC resulted in significant cell entry inhibition | inhibition of binding of ACE2 to SARS-2-S [3]: inhibited binding of ACE2 to SARS-2-S

N[C@@H](CSCC(=O)O)C(=O)O [carbocysteine, Carbocysteine]
pseudovirus cell entry after pretreatment of SARS-2-S pseudovirus with drug [4]: did not inhibit viral cell entry | cytopathic effects in virus-infected cells, virus exposed to drug prior to infection [7]: significantly inhibited

NCCCNCCS [WR-1065]
binding of RBD^original to ACE2 at one and two hours post exposure and wash [5]: binding inhibition was retained for two hours after drug removal | inhibition of binding of RBD^original to ACE2 [5]: strong inhibitory effects

NCCCNCCSP(=O)(O)O [amifostine, Amifostine]
pseudovirus cell entry after pretreatment of SARS-2-S pseudovirus with drug [4]: did not inhibit viral cell entry
